Experimental data: patent US20120251525A1, “METHOD OF UTILIZING AZELAIC ACID ESTERS TO MODULATE COMM[…] BY […]” (priority 2009, published 2012)

What was measured:
EpiDerm tissues = test: MatTek EpiDerm in vitro human skin model, croton oil irritant, multiplex immunoassay of markers; format: cell-based; conditions: for tissue levels of IL-17 / tissue levels of MIP-1-alpha: relative to control (croton oil only)
[1] = tested on: human cutaneous malignant melanoma; conditions: Zaffaroni et al. 1990; cited from earlier work
[2] = tested on: human squamous cell carcinoma; conditions: Paetzold et al. 1989; cited from earlier work
[3] = clinical practice; cited from earlier work
human choroidal melanoma = conditions: Breathnach et al. 1989; cited from earlier work
[4] = tested on: various fibroblastic lines; conditions: Geier et al. 1986; cited from earlier work
[5] = growth medium, croton oil, 24 hours, relative to control
[6] = tissue, croton oil, 24 hours, relative to control

Q: Which results are given for `CCOC(=O)CCCCCCCC(=O)OCC` [DEA, diethyl azelate]?
A: IL-8 modulation (EpiDerm tissues; matrix not stated): suppressing; IL-17 modulation (EpiDerm tissues; matrix not stated): suppressing; IL-23 modulation (EpiDerm tissues; matrix not stated): suppressing; tissue levels of IL-17 (EpiDerm tissues; tissue): exceedingly high relative to control; tissue levels of MIP-1-alpha (EpiDerm tissues; tissue): elevated relative to control

Q: For `COC(=O)CCCCCCCC(=O)OC` [DMA, dimethylazelate], which “IL-1-beta medium marker level” value (EpiDerm tissues; [5]) is on record?
A: The value was “increased”.

Q: And the “IL-4 medium marker level” value (EpiDerm tissues; [5])?
A: Its value is “increases”.

Q: And the “IL-10 medium marker level” value (EpiDerm tissues; [5])?
A: The value was “increases”.

Q: And the “TNF-alpha medium marker level” value (EpiDerm tissues; [5])?
A: Its value is “increased”.

Q: And the IL-1-beta tissue level (EpiDerm tissues; [6])?
A: The IL-1-beta tissue level was “decreased relative to control”.

Q: And the IL-4 tissue level (EpiDerm tissues; [6])?
A: The IL-4 tissue level was “decreased relative to control”.

Q: And the IL-10 tissue level (EpiDerm tissues; [6])?
A: Its IL-10 tissue level is “decreased relative to control”.

Q: And the TNF-alpha tissue level (EpiDerm tissues; [6])?
A: The TNF-alpha tissue level was “decreased relative to control”.

Q: With `O=C(O)CCCCCCCC(=O)O` [azelaic acid] as the compound, how does the “antiproliferative and cytotoxic action” value [1] read?
A: The value was “antiproliferative and cytotoxic action”.

Q: What about the “antiproliferative and cytotoxic action” value [2] of the same compound?
A: Its value is “antiproliferative and cytotoxic action”.

Q: What about the “major dose limiting toxicity” value [3] of the same compound?
A: The value was “skin irritation”.

Q: What about the “antiproliferative and cytotoxic action” value (human choroidal melanoma) of the same compound?
A: Its value is “antiproliferative and cytotoxic action”.

Q: And the “tissue levels of IL-17” value (EpiDerm tissues; tissue)?
A: Its value is “significantly lower than control”.

Q: And the “tissue levels of MIP-1-alpha” value (EpiDerm tissues; tissue)?
A: Its value is “elevated relative to control”.

Q: What about the “antiproliferative and cytotoxic action” value [4] of the same compound?
A: The value was “antiproliferative and cytotoxic action”.
